# From patent US20070167353A1, “PRODRUG COMPOSITION” (priority 2003, published 2007)
# Legend:
# [1] = biological target: T1, biphenyl hydrolase-like enzyme (BPHL) (Homo sapiens, UniProt Q86WA6); type: biochemical
# T1 sequence (Q86WA6 38-291): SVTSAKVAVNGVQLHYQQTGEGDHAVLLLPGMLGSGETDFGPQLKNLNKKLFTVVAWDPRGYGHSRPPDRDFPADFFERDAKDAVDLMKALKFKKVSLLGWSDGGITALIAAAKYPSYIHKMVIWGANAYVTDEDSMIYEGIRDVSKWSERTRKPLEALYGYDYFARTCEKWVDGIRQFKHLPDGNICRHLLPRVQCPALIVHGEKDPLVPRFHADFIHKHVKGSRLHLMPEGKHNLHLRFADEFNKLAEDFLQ
# HPEPT1 [2] = biological target: T2, HPEPT1 (Homo sapiens, UniProt P46059); settings: for Uptake (hPepT1): HeLa cells overexpressing HPEPT1, 50 micromolar, pH 6.0, 45 minutes; for hPepT1/Control: ratio of uptake in hPepT1 cells versus control cells
# T2 sequence (P46059 1-708): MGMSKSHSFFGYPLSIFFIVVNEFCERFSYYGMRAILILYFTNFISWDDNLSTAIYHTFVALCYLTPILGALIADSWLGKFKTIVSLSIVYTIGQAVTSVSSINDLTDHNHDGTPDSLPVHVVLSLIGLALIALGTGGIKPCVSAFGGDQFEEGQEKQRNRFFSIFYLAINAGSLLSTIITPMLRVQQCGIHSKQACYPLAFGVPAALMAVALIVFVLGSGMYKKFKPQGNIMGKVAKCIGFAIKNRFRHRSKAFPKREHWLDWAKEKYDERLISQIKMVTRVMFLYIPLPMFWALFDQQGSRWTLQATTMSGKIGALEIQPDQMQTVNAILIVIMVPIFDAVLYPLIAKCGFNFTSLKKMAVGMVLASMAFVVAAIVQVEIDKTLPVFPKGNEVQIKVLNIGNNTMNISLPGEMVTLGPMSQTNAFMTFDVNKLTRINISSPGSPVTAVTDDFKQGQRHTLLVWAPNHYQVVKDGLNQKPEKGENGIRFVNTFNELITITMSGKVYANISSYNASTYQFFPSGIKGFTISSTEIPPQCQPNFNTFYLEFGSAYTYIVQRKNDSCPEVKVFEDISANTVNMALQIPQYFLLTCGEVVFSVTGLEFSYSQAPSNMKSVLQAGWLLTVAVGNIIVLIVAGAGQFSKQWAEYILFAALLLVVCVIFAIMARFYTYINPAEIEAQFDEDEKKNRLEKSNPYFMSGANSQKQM
# [3] = not given; remark: listed apart in the source
# [4] = not given; remark: listed apart in the source
# HPEPT1 [5] = biological target: T2, HPEPT1; experiment: Inhibition of radiolabelled Gly-Sar uptake in DC5 cells overexpressing HPEPT1; type: cell-based; set-up: expressed in transfected cells; host or cells: HeLa cells overexpressing hPEPT1 (called 'HPEPT1 infected cells'); settings: inhibition of Gly-Sar uptake, DC5 cells overexpressing HPEPT1, 10 min, 37° C.; read-out: DC5 IC50
# Description: Amino acid prodrugs are tested for their interaction with the dipeptide transporter, HPEPT1, using tissue culture cells that are engineered to overexpress HPEPT1. In this example, the cells that overexpress HPEPT1, termed DC5, are a human meduloblastoma cell line that is stably transfected with a eukaryotic expression vector encoding HPEPT1. […] DC5 cells are plated at a density of 12,000 cells/well in 96-well tissue culture plates and allowed to grow for 2 days. The cells are washed once with 200 microliters of uptake buffer and aspirated. The plates are cooled to 4° C. and 25 ul of uptake buffer containing 125 nanomoles Gly-Sar (at a specific activity of 1 microcurie/micromole) is added. The uptake buffer also contains the prodrugs to be tested at concentrations ranging from 10 micromolar to 20 millimolar. The assay is initiated by placing the plate in a shaking water bath at 37° C. and is terminated after 10 min by rapid washing with multiple changes of 4° C. phosphate buffered saline (PBS). The radioactive Gly-Sar peptide that is transported by the hpept1 is extracted from the cell layer with 200 ul of a one to one mixture of methanol and water and is counted in 4 ml of CytoScint ES™ scintillation cocktail (ICN). The data are plotted as % Gly-Sar uptake of control (no competitive substrate) versus the competitive substrate concentration. […] Typically, values that are below 10 mM indicate that the drug interacts with transporter.
Structure (SMILES),% of Control (VACV) [1],t1/2 Human plasma,Uptake (hPepT1) (HPEPT1 [2]),t1/2 Buffer pH 7.4 [3],t1/2 Caco-2 cell homogenates [4],hPepT1/Control (HPEPT1 [2]),IC50 (HPEPT1 [5])
NCCCC[C@H](N)C(=O)O[C@H]1C[C@H](n2cc(F)c(=O)[nH]c2=O)O[C@@H]1CO [3′ lysyl monoester Floxuridine],7.3%,–,–,–,–,–,–
"NCCCCC(N)C(=O)OCC1OC(n2cc(F)c(=O)[nH]c2=O)CC1OC(=O)C(N)CCCCN (stereo not drawn) [3′,5′ lysyl diester Floxuridine]",0.0%,–,–,–,–,–,–
"Nc1ccn([C@@H]2O[C@H](COC(=O)[C@H](N)Cc3ccccc3)[C@@H](OC(=O)[C@H](N)Cc3ccccc3)C2(F)F)c(=O)n1 [3′,5′-di-O-D-phenylalanyl Gemcitabine]",–,2.4 ± 0.2 min,Not detected,28.0 ± 0.6 min,8.3 ± 0.6 min,–,–
"CC(C)[C@@H](N)C(=O)OC[C@H]1O[C@@H](n2ccc(N)nc2=O)C(F)(F)[C@@H]1OC(=O)[C@H](N)C(C)C [3′,5′-di-O-D-valyl gemcitabine]",–,2.1 ± 0.1 min,1.11 ± 0.08 nmole/mg/45 min,52.0 ± 1.1 min,10.3 ± 0.7 min,1.13,–
"CC[C@H](C)[C@H](N)C(=O)OC[C@H]1O[C@@H](n2ccc(N)nc2=O)C(F)(F)[C@@H]1OC(=O)[C@@H](N)[C@@H](C)CC [3′,5′-di-O-L-isoleucyl gemcitabine]",–,2.64 ± 0.0 min,1.16 ± 0.13 nmole/mg/45 min,61.0 ± 0.5 min,2.1 ± 0.0 min,1.06,0.82 mM
"Nc1ccn([C@@H]2O[C@H](COC(=O)[C@@H](N)Cc3ccccc3)[C@@H](OC(=O)[C@@H](N)Cc3ccccc3)C2(F)F)c(=O)n1 [3′,5′-di-O-L-phenylalanyl gemcitabine]",–,0.7 ± 0.0 min,Not detected,38.0 ± 0.2 min,0.6 ± 0.0 min,–,–
"CC(C)[C@H](N)C(=O)OC[C@H]1O[C@@H](n2ccc(N)nc2=O)C(F)(F)[C@@H]1OC(=O)[C@@H](N)C(C)C [3′,5′-di-O-L-valyl Gemcitabine]",–,2.0 ± 0.1 min,1.76 ± 0.09 nmole/mg/45 min,55.0 ± 2.7 min,0.9 ± 0.0 min,1.15,1.72 mM
"NC(CC(=O)O)C(=O)OCC1OC(n2cc(F)c(=O)[nH]c2=O)CC1OC(=O)C(N)CC(=O)O (stereo not drawn) [3′,5′-di-O-aspartyl-Floxuridine]",0.0%,–,–,–,–,–,9.55 mM
"O=C(OCC1OC(n2cc(F)c(=O)[nH]c2=O)CC1OC(=O)C1CCCN1)C1CCCN1 (stereo not drawn) [3′,5′-di-O-prolyl-Floxuridine]",–,–,–,–,–,–,> 20 mM
Nc1ccn([C@@H]2O[C@H](CO)[C@@H](OC(=O)[C@H](N)Cc3ccccc3)C2(F)F)c(=O)n1 [3′-O-D-phenylalanyl Gemcitabine],–,7.7 ± 0.2 min,Not detected,39.0 ± 0.7 min,8.8 ± 0.1 min,–,–
CC(C)[C@@H](N)C(=O)O[C@@H]1[C@@H](CO)O[C@@H](n2ccc(N)nc2=O)C1(F)F [3′-O-D-valyl Gemcitabine],–,5.99 ± 0.0 min,0.81 ± 0.02 nmole/mg/45 min,74.0 ± 1.2 min,23.2 ± 0.2 min,1.06,–
CC[C@H](C)[C@H](N)C(=O)O[C@@H]1[C@@H](CO)O[C@@H](n2ccc(N)nc2=O)C1(F)F [3′-O-L-isoleucyl gemcitabine],–,8.0 ± 0.1 min,1.03 ± 0.11 nmole/mg/45 min,66.0 ± 0.21 min,10.6 ± 0.3 min,1.09,2.18 mM
Nc1ccn([C@@H]2O[C@H](CO)[C@@H](OC(=O)[C@@H](N)Cc3ccccc3)C2(F)F)c(=O)n1 [3′-O-L-phenylalanyl Gemcitabine],–,5.7 ± 0.1 min,Not detected,39.0 ± 0.12 min,0.8 ± 0.0 min,–,–
CC(C)[C@H](N)C(=O)O[C@@H]1[C@@H](CO)O[C@@H](n2ccc(N)nc2=O)C1(F)F [3′-O-L-valyl Gemcitabine],–,5.4 ± 0.1 min,1.12 ± 0.07 nmole/mg/45 min,64.0 ± 1.4 min,5.0 ± 0.1 min,1.11,3.69 mM
O=C(OC1CC(n2cc(F)c(=O)[nH]c2=O)OC1CO)C1CCCN1 (stereo not drawn) [3′-O-prolyl-Floxuridine],–,–,–,–,–,–,> 20 mM
NCCCC[C@H](N)C(=O)OC[C@H]1O[C@@H](n2cc(F)c(=O)[nH]c2=O)C[C@@H]1O [5′ lysyl monoester Floxuridine],8.1%,–,–,–,–,–,–
Nc1ccn([C@@H]2O[C@H](COC(=O)[C@H](N)Cc3ccccc3)[C@@H](O)C2(F)F)c(=O)n1 [5′-O-D-phenylalanyl Gemcitabine],–,34.8 ± 1.1 min,Not detected,204.0 ± 3.5 min,11.4 ± 0.2 min,–,–
CC(C)[C@@H](N)C(=O)OC[C@H]1O[C@@H](n2ccc(N)nc2=O)C(F)(F)[C@@H]1O [5′-O-D-valyl Gemcitabine],–,58.1 ± 2.1 min,1.14 ± 0.04 nmole/mg/45 min,424.0 ± 1.2 min,37.4 ± 1.4 min,1.58,–
CC[C@H](C)[C@H](N)C(=O)OC[C@H]1O[C@@H](n2ccc(N)nc2=O)C(F)(F)[C@@H]1O [5′-O-L-isoleucyl gemcitabine],–,99.2 ± 1.6 min,1.22 ± 0.05 nmole/mg/45 min,452.0 ± 9.6 min,75.3 ± 2.8 min,5.64,0.61 mM
Nc1ccn([C@@H]2O[C@H](COC(=O)[C@@H](N)Cc3ccccc3)[C@@H](O)C2(F)F)c(=O)n1 [5′-O-L-phenylalanyl Gemcitabine],–,8.4 ± 0.2 min,Not detected,200.0 ± 1.9 min,3.2 ± 0.1 min,–,–
CC(C)[C@H](N)C(=O)OC[C@H]1O[C@@H](n2ccc(N)nc2=O)C(F)(F)[C@@H]1O [5′-O-L-valyl Gemcitabine],–,56.4 ± 2.9 min,2.14 ± 0.05 nmole/mg/45 min,416.0 ± 8.5 min,7.1 ± 0.6 min,11.25,0.7 mM
O=C(OCC1OC(n2cc(F)c(=O)[nH]c2=O)CC1O)C1CCCN1 (stereo not drawn) [5′-O-prolyl-Floxuridine],–,–,–,–,–,–,> 20 mM
"Nc1nc2c(ncn2COCCO)c(=O)[nH]1 [Acyclovir, reference compound]",–,–,–,–,–,–,> 25 mM
"O=c1[nH]c(=O)n([C@H]2C[C@H](O)[C@@H](CO)O2)cc1F [Floxuridine, reference compound]",–,–,–,–,–,–,> 20 mM
"Nc1nc(O)c2ncn(COC(CO)CO)c2n1 [Ganciclovir, reference compound]",–,–,–,–,–,–,> 20 mM
"Nc1ccn([C@@H]2O[C@H](CO)[C@@H](O)C2(F)F)c(=O)n1 [Gemcitabine, reference compound]",–,–,–,–,–,–,> 20 mM
